How the values were obtained:
C57BL/6J mice [1] = experiment: Disc angiogenesis system; type: in vivo; conditions: for crosssectional area of the disc covered with new vessels (neovascularization of the disc): systemic treatment via osmotic minipumps, median, control 54.9%
Protocol: Disc Angiogenesis System. A disc of polyvinyl alcohol sponge (Rippey, El Dorado Hills, Calif.), covered with nitrocellulose cell-impermeable filters (Millipore, Burlington, Mass.), allows capillaries to grow only through the rim of the disc. The randomized treatment for the 2-week study period was delivered via osmotic minipumps (0.25 μl/hr; Durect, Cupertino, Calif.). Those discs were subcutaneously implanted in the back of 10-week old C57BL/6J mice or in some experiments in the back of α7-nAChR-deficient (B6.129S7-Chrna7^trn1Bay) mice (n=6 per group; Jackson, Bar Harbor, Me.). Two weeks later, mice were anesthetized and infused with space-filling fluorescent microspheres (0.2 μm, Molecular Probes, Eugene, Oreg.) through the left ventricle of the heart. Both the area of the disc covered with perfused vessels and the vessel density were quantified. Heeschen et al. (2001) Nat Med 7:833-837; and Jang et al. (2000) Circulation 102:1414-1419 (3, 10) The α7-nAChR in growing vessels were identified by immunohistochemistry (Santa Cruz Biotechnology, Santa Cruz, Calif.). To verify the specificity of the staining, discs explanted from homozygous α7-nAChR^−/− mice were used as a negative control.
To determine if the nAChR are involved in the native angiogenesic response in vivo, we used the disc angiogenesis system. In the control group, 54.9% (95% CI 46.1-63.6) of the crosssectional area of the disc was covered with new vessels when the disc was removed three weeks after subcutaneous implantation. FIG. 1.

HMVECs and HUVECs = experiment: In vitro Matrigel assay (capillary network / tube formation); type: cell-based, human
Protocol: In Vitro Matrigel Assay. Human umbilical vein endothelial cells (HUVEC) and human microvascular endothelial cells (HMVEC; up to 5th passage; Bio Whittaker, Walkersville, Md.) were grown in EGM-MV supplemented with 5% FBS, 0.5 ml hEGF, 0.2 ml hydrocortisone, 2.0 ml BBE, and 0.5 ml GA-1000 (Bio Whittaker). Four-well chamber slides were coated with growth factor enhanced Matrigel (Becton Dickinson, Bedford, Mass.) and equilibrated with basal medium. Kureishi et al. (2000) Nat Med 6:1004-1010. Cells were seeded on top of the gel at a density of 10^3 cells/well in fresh basal medium containing 5% FBS. After two hours, increasing concentrations of mecamylamine (10^−12 to 10^−4 M; Sigma, St. Louis, Mont.) or vehicle were added to the medium. Development of tube formation in the center of each well was investigated at 24, 48, and 72 hours. We studied critical steps in angiogenesis, such as migration and differentiation, using an in vitro model of angiogenesis with ECs forming a network of capillary-like structures. After seeding the cells on growth factor-enriched matrigel, HMVECs and HUVECs, respectively, manifested tube formation within 48 hours in response to control medium.

C57BL/6J mice [2] = experiment: Murine model of hind limb ischemia; type: in vivo; conditions: for median diameter of collateral vessels / number of collateral vessels: ischemic limb; for median diameter of collateral vessels: control 0.12 mm; for number of collateral vessels: control 7.5
Protocol: Murine Model of Hind Limb Ischemia. In 10-week old C57BL/6J mice, the distal end of the external iliac artery and the deep and superficial femoral artery were ligated (n=8 animals per group). Mecamylamine was administered for three weeks by daily intramuscular injection. Serum VEGF levels were determined with a mouse VEGF ELISA kit (R&D System, Minneapolis, Minn.). Capillary density was determined in the adductor and semimembranous muscles. In 10 μm cryostat sections, cut transverse to the mid-belly of the muscle, capillaries were identified by monoclonal antibodies against CD31 (BD PharMingen, San Diego, Calif.) and myocytes were counterstained with eosin (Sigma). Capillary density for each section was determined in ten randomly selected fields and is expressed as a ratio of capillaries to myocytes.
To determine if nAChR play an important role in the setting of angiogenesis in response to ischemia, we employed the murine model of hind limb ischemia. After unilateral ligation of the superficial and deep femoral artery, we administered mecamylamine or vehicle by intramuscular injections into the ischemic hind limb on a daily basis for a period of three weeks. Animals (each group n=8) received 0, 0.05, or 0.5 μg/kg of mecamylamine. […] We achieved similar results when we administered mecamylamine systemically via osmotic minipumps (5.0 μg/kg; 0.24 (95% CI 0.19-0.28); P<0.001).
Accordingly, we identified collaterals by double staining for CD31 (ECs) and α-actin (SMCs) using confocal microscopy. The number of collaterals was quantified on cross-sections by identifying vascular lumen lined by CD31-positive endothelium, that were coated by an actin-positive vascular smooth muscle wall, with vessel diameters of at least 0.02 mm.

CD34+/Flk-1+ cells = experiment: FACS of endothelial progenitor cells in hind limb ischemia model; type: in vivo, mice; conditions: systemic administration
Protocol: FACS. Fluorescence-activated cell sorting was used to identify the cellular population mobilized by ischemia and ischemia plus mecamylamine, respectively. At each time point (baseline, 3, 7, 14 days), blood was obtained from the right atrium. Bone marrow was isolated from bilateral femurs and tibias of each animal and incubated in HBSS (1% FCS) on ice. Peripheral blood and bone marrow cells were incubated with fluorescent-labeled antibodies and analyzed with a FACS-Vantage flow cytometer (Becton Dickinson, Franklin Lakes, N.J.). FITC-conjugated antibody against mouse CD34 and PE-conjugated antibody against mouse Flk-1 (BD PharMingen, San Diego, Calif.) were used as endothelial lineage markers. The analysis of CD34+ and Flk-1+ cells was performed after gating for monocyte size. Biotinylated antibodies against MAC-1 (BD PharMingen) conjugated to Avidin-Texas Red (BD PharMingen) were used as a monocyte/macrophage lineage marker after gating for monocyte cell size with the exclusion of granulocytes that were marked by Ly-6G GR-1 against mouse conjugated to APC (BD PharMingen). […] Data were analyzed using FloJo software (Becton Dickinson).
Table 1 presents the data, expressed as percentage of endothelial progenitor cells in bone marrow (BM) and peripheral blood (PB) before and after ligation of the femoral artery in the murine model of hind limb ischemia.

[3] = test system: Lewis lung carcinoma cells; experiment: Lewis lung tumor model, subcutaneous; type: in vivo, mice
Protocol: (§1) Lewis Lung Tumor Model. A total of 10^6 Lewis lung carcinoma cells (ATCC, Manassas, Va.) were cultured in RPMI 1640 supplemented with 10% FBS. Cancer cells were subcutaneously injected into each flank or orthotopically introduced into the lung parenchyma via a limited skin incision without thoracotomy of 10-week old C57BL/6J wild type mice. Animals received mecamylamine (3 mg/kg) or vehicle via osmotic mini pumps. Mice injected subcutaneously with tumor cells were checked on a daily basis for the presence of a palpable tumor and tumor growth was measured with a gauge. Tumor size was calculated as the product of length×width×0.5 cm^3. When mice in any group were bearing tumors>1.5 cm^3, the experiment was stopped and all animals sacrificed for histological evaluation. Tumor vessels were identified by infusion of space-filling fluorescent microspheres (0.2 μm; Molecular Probes) via the left ventricle of the heart.
(§2) The previous studies indicate that nAChR play an important role in angiogenesis in a broad spectrum of experimental conditions. To determine if mecamylamine could influence tumor angiogenesis, we used the in vivo Lewis lung cancer model. […] This late decrease in tumor growth in the mecamylamine group corresponded with a reduced vascularization of the tumor tissue. […] In another experiment, we orthotopically implanted Lewis lung cancer cells into the lung parenchyma. Larger tumors in the control group required discontinuation of the experiment after 17 days (tumor volume of 0.62 cm^3 (95% CI 0.37-0.85) versus 0.45 cm^3 (95% CI 0.28-0.66); P<0.001).

[4] = test system: Lewis lung carcinoma cells; experiment: Lewis lung tumor model, orthotopic implantation into lung parenchyma; type: in vivo, mice
Protocol: as §1, §2

Lewis lung cancer cells = experiment: Cell culture of Lewis lung cancer cells: proliferation and apoptosis during hypoxia; type: cell-based
From the text: In subsequent cell culture experiments, we investigated whether this reduced tumor growth may also be related to a direct anti-proliferative effect of mecamylamine on the cancer cells. […] We also investigated the effects of increasing mecamylamine concentrations on the percentage of cells undergoing apoptosis during hypoxia using flow cytometry.

## C[N+](C)(C)CCCCCC[N+](C)(C)C [hexamethonium]
C57BL/6J mice [1]
  crosssectional area of the disc covered with new vessels (neovascularization of the disc): 11.5%

## CNC1(C)C2CCC(C2)C1(C)C (stereo not shown) [mecamylamine]
HMVECs and HUVECs; 10^−6 M, treatment stopped after 36 hours, network-like structures at 72 hours
  reversibility of effect on network formation: reversible
HMVECs and HUVECs; medium supplemented with 10^−4 to 10^−12 M, growth factor-enriched matrigel
  network formation (tube formation): network formation was inhibited
C57BL/6J mice [1]; disc angiogenesis system
  angiogenesis in vivo (FIG. 1): inhibits angiogenesis in vivo
C57BL/6J mice [1]
  crosssectional area of the disc covered with new vessels (neovascularization of the disc): 14.3%
C57BL/6J mice [2]; 0.5 μg/kg daily intramuscular injection into ischemic hind limb, 3 weeks, control 0.45
  capillary density (angiogenic response): 0.26 capillaries/myocyte
C57BL/6J mice [2]; high dose
  median diameter of collateral vessels: 0.07 mm
  number of collateral vessels: 6.2
C57BL/6J mice [2]; low dose
  median diameter of collateral vessels: 0.09 mm
  number of collateral vessels: 7.1
C57BL/6J mice [2]; murine model of hind limb ischemia
  capillary density compared to control (FIG. 3): decreased capillary density in a dose-dependent fashion
C57BL/6J mice [2]; systemically via osmotic minipumps, 5.0 μg/kg
  capillary density (angiogenic response): 0.24 capillaries/myocyte
CD34+/Flk-1+ cells
  number of CD34+/Flk-1+ cells in the bone marrow: reduced the number of CD34^+/Flk-1^+ cells in the bone marrow
[3]; 21-day follow-up, control 1.21
  tumor growth (tumor size): 0.85 cm^3
[3]; Lewis Lung tumor model
  advanced tumor growth (FIG. 5): significantly less tumor growth
[3]; subcutaneous tumor, control 0.82
  capillary density of tumor tissue: 0.56 capillaries/mm^2
[4]; Lewis lung cancer model, control 152.2
  systemic levels of VEGF: 78.7 pg/mL
[4]; orthotopic, after 17 days, control 0.62
  tumor volume: 0.45 cm^3
[4]; orthotopic, control 1.56
  tumor vascularization: 0.98 capillaries/mm^2
Lewis lung cancer cells; 10^−6 M during hypoxia, control 13%
  cells positive for Annexin V: 12%
Lewis lung cancer cells; increasing concentrations, flow cytometry, versus control group
  percentage of cells undergoing apoptosis during hypoxia: no difference was observed
Lewis lung cancer cells; up to 48 hours of treatment
  number of Lewis lung cancer cells (direct anti-proliferative effect): did not observe a significant change
